Test results taken from PubChem BioAssay AID256 (DTP/NCI, 2004).
Toxic doses and inconclusive results are not listed. Rule for the calls: active = survival T/C of 150% or more; inactive = T/C below 125% in these data.

Test system: CD2F1 mice, L1210 leukemia ip, survival T/C
Assay: NCI In Vivo Anticancer Drug Screen. Data for tumor model L1210 Leukemia (intraperitoneal) in CD2F1 (CDF1) mice
Conditions: higher = longer survival
Summary of the method: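 Implant tumor; dose compound or vehicle; measure endpoint in both groups; report treated divided by control.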

[1] = endpoint: mean survival time, dose: 100.0 mg/kg/injection, schedule: Q04DX003 (ip), vehicle: saline with Tween-80
[2] = endpoint: mean survival time, dose: 200.0 mg/kg/injection, schedule: Q04DX003 (ip), vehicle: saline with Tween-80
[3] = endpoint: mean survival time, dose: 400.0 mg/kg/injection, schedule: Q04DX003 (ip), vehicle: saline with Tween-80
[4] = endpoint: mean survival time, dose: 12.5 mg/kg/injection, schedule: Q01DX009 (ip), vehicle: saline with Tween-80
[5] = endpoint: mean survival time, dose: 25.0 mg/kg/injection, schedule: Q01DX009 (ip), vehicle: saline with Tween-80
[6] = endpoint: mean survival time, dose: 50.0 mg/kg/injection, schedule: Q01DX009 (ip), vehicle: saline with Tween-80
[7] = endpoint: mean survival time, dose: 100.0 mg/kg/injection, schedule: Q01DX001 (ip), vehicle: saline with Tween-80
[8] = endpoint: mean survival time, dose: 200.0 mg/kg/injection, schedule: Q01DX001 (ip), vehicle: saline with Tween-80
[9] = endpoint: mean survival time, dose: 400.0 mg/kg/injection, schedule: Q01DX001 (ip), vehicle: saline with Tween-80
[10] = endpoint: mean survival time, dose: 50.0 mg/kg/injection, schedule: Q01DX001 (ip), vehicle: saline with Tween-80
[11] = endpoint: mean survival time, dose: 75.0 mg/kg/injection, schedule: Q01DX001 (ip), vehicle: saline
[12] = endpoint: mean survival time, dose: 150.0 mg/kg/injection, schedule: Q01DX001 (ip), vehicle: saline
[13] = endpoint: mean survival time, dose: 100.0 mg/kg/injection, schedule: Q01DX009 (ip), vehicle: saline with Tween-80
[14] = endpoint: mean survival time, dose: 200.0 mg/kg/injection, schedule: Q01DX009 (ip), vehicle: saline with Tween-80
[15] = endpoint: mean survival time, dose: 400.0 mg/kg/injection, schedule: Q01DX009 (ip), vehicle: saline with Tween-80

Measured: T/C

O=C(O)C(O)c1ccccc1 (stereo unspecified)
inactive: endpoint: mean survival time, dose: 100.0 mg/kg/injection, schedule: Q04DX002 (ip), vehicle: saline 101 % of control | endpoint: mean survival time, dose: 200.0 mg/kg/injection, schedule: Q04DX002 (ip), vehicle: saline 114 % of control

c1ccc([P+](Cc2ccc3ccccc3n2)(c2ccccc2)c2ccccc2)cc1
inactive: endpoint: mean survival time, dose: 6.25 mg/kg/injection, schedule: Q01DX009 (ip), vehicle: saline 108 % of control | endpoint: mean survival time, dose: 12.5 mg/kg/injection, schedule: Q01DX009 (ip), vehicle: saline 112 % of control

O=C(N=C=S)c1ccccc1
inactive: endpoint: mean survival time, dose: 100.0 mg/kg/injection, schedule: Q04DX003 (ip), vehicle: other 90 % of control | endpoint: mean survival time, dose: 200.0 mg/kg/injection, schedule: Q04DX003 (ip), vehicle: other 101 % of control | endpoint: mean survival time, dose: 400.0 mg/kg/injection, schedule: Q04DX003 (ip), vehicle: other 101 % of control

NC(=O)c1cc2ccncc2c2ccccc12
inactive: [1] 97 % of control | [2] 97 % of control | [3] 106 % of control

N#C/C(=C/c1ccccc1Cl)C(N)=O
inactive: endpoint: mean survival time, dose: 100.0 mg/kg/injection, schedule: Q01DX001 (ip), vehicle: saline sonified 103 % of control | endpoint: mean survival time, dose: 200.0 mg/kg/injection, schedule: Q01DX001 (ip), vehicle: saline sonified 100 % of control | endpoint: mean survival time, dose: 400.0 mg/kg/injection, schedule: Q01DX001 (ip), vehicle: saline sonified 104 % of control

Nc1ccc2cc(O)ccc2c1
inactive: [4] 91 % of control | [5] 98 % of control | [6] 95 % of control

CN(C)CCC(=O)c1ccc([N+](=O)[O-])cc1
inactive: endpoint: mean survival time, dose: 1.25 mg/kg/injection, schedule: Q01DX009 (ip), vehicle: saline with Tween-80 102 % of control | endpoint: mean survival time, dose: 2.5 mg/kg/injection, schedule: Q01DX009 (ip), vehicle: saline with Tween-80 96 % of control | endpoint: mean survival time, dose: 5.0 mg/kg/injection, schedule: Q01DX009 (ip), vehicle: saline with Tween-80 95 % of control | endpoint: mean survival time, dose: 5.0 mg/kg/injection, schedule: Q04DX003 (ip), vehicle: saline with Tween-80 100 % of control

Cc1ccc2c(c1)C(=O)N(CC[P+](c1ccccc1)(c1ccccc1)c1ccccc1)C2=O
inactive: endpoint: mean survival time, dose: 0.39 mg/kg/injection, schedule: Q01DX009 (ip), vehicle: Klucel (hydroxypropylcellulose) (HPC) 105 % of control | endpoint: mean survival time, dose: 0.78 mg/kg/injection, schedule: Q01DX009 (ip), vehicle: Klucel (hydroxypropylcellulose) (HPC) 100 % of control | endpoint: mean survival time, dose: 1.56 mg/kg/injection, schedule: Q01DX009 (ip), vehicle: Klucel (hydroxypropylcellulose) (HPC) 112 % of control | endpoint: mean survival time, dose: 3.12 mg/kg/injection, schedule: Q01DX009 (ip), vehicle: Klucel (hydroxypropylcellulose) (HPC) 103 % of control | endpoint: mean survival time, dose: 6.25 mg/kg/injection, schedule: Q01DX009 (ip), vehicle: Klucel (hydroxypropylcellulose) (HPC) 105 % of control | endpoint: mean survival time, dose: 12.5 mg/kg/injection, schedule: Q01DX009 (ip), vehicle: Klucel (hydroxypropylcellulose) (HPC) 101 % of control | endpoint: mean survival time, dose: 25.0 mg/kg/injection, schedule: Q01DX009 (ip), vehicle: Klucel (hydroxypropylcellulose) (HPC) 105 % of control

COc1cc(/C=C\[N+](=O)[O-])c([N+](=O)[O-])cc1OCc1ccccc1
inactive: [7] 94 % of control | [8] 97 % of control

O=C1C=CC(=O)N1c1ccc(Cl)cc1Cl
inactive: endpoint: mean survival time, dose: 12.5 mg/kg/injection, schedule: Q04DX003 (ip), vehicle: saline with Tween-80 103 % of control | endpoint: mean survival time, dose: 25.0 mg/kg/injection, schedule: Q04DX003 (ip), vehicle: saline with Tween-80 100 % of control

SCc1ccccc1
inactive: [7] 110 % of control | [8] 98 % of control | [9] 105 % of control

Nc1ccc(-c2nc(-c3ccccc3)c(-c3ccccc3)[nH]2)cc1
inactive: endpoint: mean survival time, dose: 12.5 mg/kg/injection, schedule: Q01DX001 (ip), vehicle: saline with Tween-80 94 % of control | endpoint: mean survival time, dose: 25.0 mg/kg/injection, schedule: Q01DX001 (ip), vehicle: saline with Tween-80 102 % of control | [10] 102 % of control | [9] 87 % of control

CCC(=O)C(C)(C)c1ccccc1 (tested in a mixture with another compound)
inactive: [7] 110 % of control | [8] 98 % of control

CCOC(c1ccccc1)(c1ccccc1)c1ccccc1
inactive: endpoint: mean survival time, dose: 100.0 mg/kg/injection, schedule: Q01DX009 (ip), vehicle: other 98 % of control | endpoint: mean survival time, dose: 200.0 mg/kg/injection, schedule: Q01DX009 (ip), vehicle: other 102 % of control | endpoint: mean survival time, dose: 400.0 mg/kg/injection, schedule: Q01DX009 (ip), vehicle: other 96 % of control

CC(=O)Nc1cccc(C)n1
inactive: [11] 98 % of control | [12] 98 % of control

O=S(=O)(O)C1=CC(=N\Cl)/C=CC/1=N/Cl
inactive: endpoint: median survival time, dose: 50.0 mg/kg/injection, schedule: Q01DX009 (ip), vehicle: saline with Tween-80 110 % of control | endpoint: median survival time, dose: 100.0 mg/kg/injection, schedule: Q01DX009 (ip), vehicle: saline with Tween-80 119 % of control | endpoint: median survival time, dose: 200.0 mg/kg/injection, schedule: Q01DX009 (ip), vehicle: saline with Tween-80 108 % of control | endpoint: median survival time, dose: 400.0 mg/kg/injection, schedule: Q01DX009 (ip), vehicle: saline with Tween-80 120 % of control

NC(=O)c1ccc[n+](CCN(CCCl)c2ccc3ccccc3c2)c1
inactive: endpoint: mean survival time, dose: 1.25 mg/kg/injection, schedule: Q01DX009 (ip), vehicle: Klucel (hydroxypropylcellulose) (HPC) 104 % of control | endpoint: mean survival time, dose: 2.5 mg/kg/injection, schedule: Q01DX009 (ip), vehicle: Klucel (hydroxypropylcellulose) (HPC) 107 % of control | endpoint: mean survival time, dose: 5.0 mg/kg/injection, schedule: Q01DX009 (ip), vehicle: Klucel (hydroxypropylcellulose) (HPC) 102 % of control

C[N+]1(C)CCc2cc(O)c(O)cc2C1Cc1ccc(O)c(O)c1 (stereo unspecified)
inactive: [11] 102 % of control

CCOC(=O)c1cnc(SC)nc1NC(C)c1ccccc1 (stereo unspecified)
inactive: [7] 94 % of control | [13] 97 % of control | [8] 88 % of control | [14] 89 % of control | [9] 89 % of control | [15] 94 % of control

CN1C=NN(C)C=N1
inactive: [11] 100 % of control | [12] 97 % of control | endpoint: mean survival time, dose: 300.0 mg/kg/injection, schedule: Q01DX001 (ip), vehicle: saline 108 % of control

COC(=O)c1cc([N+](=O)[O-])cc([N+](=O)[O-])c1Sc1ncnc2nc[nH]c12
inactive: endpoint: mean survival time, dose: 0.63 mg/kg/injection, schedule: Q01DX005 (ip), vehicle: other 100 % of control | endpoint: mean survival time, dose: 1.25 mg/kg/injection, schedule: Q01DX005 (ip), vehicle: other 100 % of control | endpoint: mean survival time, dose: 2.5 mg/kg/injection, schedule: Q01DX005 (ip), vehicle: other 107 % of control | endpoint: mean survival time, dose: 5.0 mg/kg/injection, schedule: Q01DX005 (ip), vehicle: other 112 % of control | endpoint: mean survival time, dose: 10.0 mg/kg/injection, schedule: Q01DX005 (ip), vehicle: other 112 % of control | endpoint: mean survival time, dose: 40.0 mg/kg/injection, schedule: Q01DX005 (ip), vehicle: other 95 % of control

CC1(C)C2CC=C(CC3CC(=O)OC3=O)C1C2 (stereo unspecified)
inactive: endpoint: mean survival time, dose: 75.0 mg/kg/injection, schedule: Q01DX001 (ip), vehicle: other 97 % of control | endpoint: mean survival time, dose: 150.0 mg/kg/injection, schedule: Q01DX001 (ip), vehicle: other 102 % of control | endpoint: mean survival time, dose: 300.0 mg/kg/injection, schedule: Q01DX001 (ip), vehicle: other 108 % of control

COc1ccc(-c2nc(N)nc3c2CN(CCCC(=O)O)C3=O)cc1
inactive: endpoint: mean survival time, dose: 100.0 mg/kg/injection, schedule: Q04DX003 (ip), vehicle: saline 98 % of control | endpoint: mean survival time, dose: 200.0 mg/kg/injection, schedule: Q04DX003 (ip), vehicle: saline 98 % of control | endpoint: mean survival time, dose: 400.0 mg/kg/injection, schedule: Q04DX003 (ip), vehicle: saline 96 % of control

O=c1[nH]cc(C(O)Cc2ccccc2)c(=O)[nH]1 (stereo unspecified)
inactive: [13] 97 % of control | [1] 104 % of control | [14] 100 % of control | [2] 94 % of control | [15] 97 % of control | [3] 98 % of control

O=C(NNC(=S)Nc1cccc(C(F)(F)F)c1)c1ccncc1
inactive: [4] 91 % of control | [5] 93 % of control | [6] 88 % of control | endpoint: mean survival time, dose: 100.0 mg/kg/injection, schedule: Q04DX002 (ip), vehicle: saline with Tween-80 98 % of control | endpoint: mean survival time, dose: 200.0 mg/kg/injection, schedule: Q04DX002 (ip), vehicle: saline with Tween-80 105 % of control

Cc1c2c(cc3c1CCC1(C)C(C(C)CCC(C)C(C)C)CC(O)C31O)CCCC2 (stereo unspecified)
inactive: [10] 92 % of control | [7] 94 % of control | [1] 96 % of control | [8] 92 % of control | [2] 98 % of control | [3] 98 % of control
